Results taken from ChEMBL document CHEMBL1123733, “Structure-activity relationship in PAF-acether. 3. Hydrophobic contribution to agonistic activity” (J Med Chem, 1987).

Legend:
Oryctolagus cuniculus [1] = species: Oryctolagus cuniculus; test: Relative aggregant activity in rabbit platelets was determined; assay type: functional
Oryctolagus cuniculus [2] = species: Oryctolagus cuniculus; test: Compound was tested in vitro for its ability to aggregate platelet-rich plasma (PRP) in rabbit; assay type: functional
Cavia porcellus [3] = test: Compound was evaluated for in vivo bronchoconstriction in anesthetized guinea pig (3 cm H2O); assay type: functional, Lung
Cavia porcellus [4] = test: Compound was evaluated for in vivo thrombocytopenia effect in anesthetized guinea pig; assay type: functional, organism-based
Oryctolagus cuniculus [5] = species: Oryctolagus cuniculus; test: Compound was tested in vitro for its ability to aggregate washed rabbit platelets (WP); assay type: functional
Rattus norvegicus = test: (§1) Compound is evaluated for hypotensive activity in anesthetized rat (in vivo); assay type: functional
[6] = as §1; assay type: functional

EC50 (Oryctolagus cuniculus [2]) [nM]	EC50 (Cavia porcellus [4]) [M/kg]	Compound	RA (Oryctolagus cuniculus [1])	Activity (Cavia porcellus [3]) [M/kg]	further results
57		CCCCCCCCCCCCCCCCCCOCC(COP(=O)([O-])OCC[N+](C)(C)C)OC(C)=O (stereo not drawn)	1		
		CCCCCCCCCCCCCCCC(=O)OCC(COP(=O)([O-])OCC[N+](C)(C)C)OC(C)=O (stereo not drawn)	0.009		
		CCCCCCCCCCCCCCCCCCC(COP(=O)([O-])OCC[N+](C)(C)C)OC(C)=O (stereo not drawn)	0.022		
		CCCCCCCCCCOc1ccc(COCC(COP(=O)([O-])OCC[N+](C)(C)C)OC(C)=O)cc1 (stereo not drawn)	0.01		
		CCCCCC/C=C/CCCCCCCCOCC(COP(=O)([O-])OCC[N+](C)(C)C)OC(C)=O (stereo not drawn)	1.6		
17000	1e-07	CCCCCCOCC(COP(=O)([O-])OCC[N+](C)(C)C)OC(C)=O (stereo not drawn)	0.003	2.6e-08	EC50 (Oryctolagus cuniculus [5]): 310 nM; EC30 (Rattus norvegicus): 7e-07 M/kg
100000	1e-06	CCCCOCC(COP(=O)([O-])OCC[N+](C)(C)C)OC(C)=O (stereo not drawn)	0.001	1e-06	EC50 (Oryctolagus cuniculus [5]): 1800 nM; EC30 (Rattus norvegicus): 1.1e-06 M/kg
		CCCCCCCCCCCCCCCCCC(=O)OCC(COP(=O)([O-])OCC[N+](C)(C)C)OC(C)=O (stereo not drawn)	0.004		
		CCCCC/C=C/C/C=C/CCCCCCCCOCC(COP(=O)([O-])OCC[N+](C)(C)C)OC(C)=O (stereo not drawn)	2.667		
		CCCCCCCCCCCCCCCCCCSCC(COP(=O)([O-])OCC[N+](C)(C)C)OC(C)=O (stereo not drawn)	0		
> 100000	> 1.6e-06	COCC(COP(=O)([O-])OCC[N+](C)(C)C)OC(C)=O (stereo not drawn)		>1.6e-06	EC30 (Rattus norvegicus): >1.6e-06 M/kg
190	1.8e-10	CCCCCCCCCCCCCCCCCCCCOCC(COP(=O)([O-])OCC[N+](C)(C)C)OC(C)=O (stereo not drawn)	0.8	1.3e-09	EC50 (Oryctolagus cuniculus [5]): 0.33 nM; EC30 (Rattus norvegicus): 2.4e-09 M/kg
		CCCCCCCCCCCCCCCCCC(COP(=O)([O-])OCC[N+](C)(C)C)OC(C)=O (stereo not drawn)	0.005		
230	6e-10	CCCCCCCCCCCCOCC(COP(=O)([O-])OCC[N+](C)(C)C)OC(C)=O (stereo not drawn)	1.248	1.2e-10	EC50 (Oryctolagus cuniculus [5]): 0.45 nM; EC30 (Rattus norvegicus): 3.3e-09 M/kg
19	1.8e-10	CCCCCCCCCCCCCCCCCCOC[C@H](COP(=O)([O-])OCC[N+](C)(C)C)OC(C)=O		1.8e-10	EC30 (Rattus norvegicus): 4.9e-10 M/kg
		CCCCCCCCCCCCCCCCc1ccccc1OCC(COP(=O)([O-])OCC[N+](C)(C)C)OC(C)=O (stereo not drawn)	0.002		
		CCCCCCCCCCCCCCCCOCCC(COP(=O)([O-])OCC[N+](C)(C)C)OC(C)=O (stereo not drawn)	0.015		
		CCCCCCCCCCCCCCc1cccc(OCC(COP(=O)([O-])OCC[N+](C)(C)C)OC(C)=O)c1 (stereo not drawn)	0.364		
		CCCCCCCCCCOCCOCCOCC(COP(=O)([O-])OCC[N+](C)(C)C)OC(C)=O (stereo not drawn)	0.28		
1200	6e-10	CCCCCCCCCCOCC(COP(=O)([O-])OCC[N+](C)(C)C)OC(C)=O (stereo not drawn)	1.048	2.5e-10	EC50 (Oryctolagus cuniculus [5]): 8.5 nM; EC30 [6]: 7e-09 M/kg
		CCCCCCCCCCCCCCCCCCCCC(COP(=O)([O-])OCC[N+](C)(C)C)OC(C)=O (stereo not drawn)	0		
		CCCCCCCCCCOCc1ccc(OCC(COP(=O)([O-])OCC[N+](C)(C)C)OC(C)=O)cc1 (stereo not drawn)	0.01		
		COCCOCCOCCCCCCCCOCC(COP(=O)([O-])OCC[N+](C)(C)C)OC(C)=O (stereo not drawn)	0.007		
		CCCCCCCCCCCCCCc1ccc(OCC(COP(=O)([O-])OCC[N+](C)(C)C)OC(C)=O)cc1 (stereo not drawn)	0.302		
		CCCCCCCC/C=C/CCCCCCCCOCC(COP(=O)([O-])OCC[N+](C)(C)C)OC(C)=O (stereo not drawn)	2		

Compound	EC50 (Oryctolagus cuniculus [2]) [nM]	EC50 (Cavia porcellus [4]) [M/kg]	RA (Oryctolagus cuniculus [1])	Activity (Cavia porcellus [3]) [M/kg]	further results
CCCCCCCCCCCCCCCCOCC(COP(=O)([O-])OCC[N+](C)(C)C)OC(C)=O (stereo not drawn) [PLATELET ACTIVATING FACTOR]	45	2e-10	1.268	5e-11	EC50 (Oryctolagus cuniculus [5]): 0.2 nM; EC30 (Rattus norvegicus): 1.3e-10 M/kg
